Source: the kinase profiling compilation of Christmann-Franck et al. (2016)

Columns and labels:
Assay in all cases: radiometric filter-binding kinase assay, Kinase HotSpot
Details in all cases: compound 0.5 µM; ATP 10 µM
[1] = target: CDK5 CDK5R1 p35 (human) (UniProt Q00535+Q15078)
[2] = target: ABL1 (human) (UniProt P00519)
[3] = target: PRKCZ (human) (UniProt Q05513)
[4] = target: MAPK10 (human) (UniProt P53779)
[5] = target: EGFR (human) (UniProt P00533)
[6] = target: MAPKAPK2 (human) (UniProt P49137)
[7] = target: ULK2 (human) (UniProt Q8IYT8)
[8] = target: GSK3B (human) (UniProt P49841)
[9] = target: MAP3K11 (human) (UniProt Q16584)
[10] = target: CDK4 CCND3 (human) (UniProt P30281+P11802)
[11] = target: PRKCI (human) (UniProt P41743)
[12] = target: ITK (human) (UniProt Q08881)
[13] = target: PHKG2 (human) (UniProt P15735)
[14] = target: TAOK2 (human) (UniProt Q9UL54)
[15] = target: PKN2 (human) (UniProt Q16513)
[16] = target: EPHB2 (human) (UniProt P29323)
[17] = target: MAP2K2 (human) (UniProt P36507)
[18] = target: PNCK (human) (UniProt Q6P2M8)
[19] = target: ROS1 (human) (UniProt P08922)
[20] = target: TEC (human) (UniProt P42680)
[21] = target: MAP3K8 (human) (UniProt P41279)
[22] = target: PRKCG (human) (UniProt P05129)
[23] = target: RPS6KB2 (human) (UniProt Q9UBS0)
[24] = target: CLK1 (human) (UniProt P49759)
[25] = target: STK25 (human) (UniProt O00506)
[26] = target: STK3 (human) (UniProt Q13188)
[27] = target: MAP3K2 (human) (UniProt Q9Y2U5)
[28] = target: MAP3K10 (human) (UniProt Q02779)
[29] = target: CAMK1D (human) (UniProt Q8IU85)
[30] = target: MAP3K9 (human) (UniProt P80192)
[31] = target: CSNK2A2 (human) (UniProt P19784)
[32] = target: RPS6KA4 KD2 (human) (UniProt O75676)
RPS6KA4 KD2 (human), sequence (O75676 whole entry, looked up): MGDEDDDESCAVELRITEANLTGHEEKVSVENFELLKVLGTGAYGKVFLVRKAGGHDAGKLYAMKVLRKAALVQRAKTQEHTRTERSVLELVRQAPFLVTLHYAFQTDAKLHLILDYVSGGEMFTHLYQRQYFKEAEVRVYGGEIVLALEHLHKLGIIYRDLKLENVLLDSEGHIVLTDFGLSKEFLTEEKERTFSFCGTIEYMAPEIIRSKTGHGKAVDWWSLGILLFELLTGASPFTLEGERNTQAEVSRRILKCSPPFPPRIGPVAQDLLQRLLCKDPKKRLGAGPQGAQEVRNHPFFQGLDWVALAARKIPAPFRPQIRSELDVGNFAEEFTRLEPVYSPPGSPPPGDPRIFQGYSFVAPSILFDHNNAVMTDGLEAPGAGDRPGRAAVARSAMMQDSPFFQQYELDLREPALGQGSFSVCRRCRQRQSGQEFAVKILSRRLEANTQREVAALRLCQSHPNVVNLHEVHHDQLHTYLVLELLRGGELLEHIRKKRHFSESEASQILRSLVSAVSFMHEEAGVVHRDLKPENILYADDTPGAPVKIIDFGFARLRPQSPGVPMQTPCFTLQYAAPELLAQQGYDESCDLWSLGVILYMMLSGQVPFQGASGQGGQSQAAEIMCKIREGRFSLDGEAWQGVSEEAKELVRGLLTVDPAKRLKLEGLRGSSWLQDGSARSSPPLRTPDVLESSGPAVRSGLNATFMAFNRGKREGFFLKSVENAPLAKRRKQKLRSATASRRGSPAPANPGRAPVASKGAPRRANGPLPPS

[33] = target: MAP4K4 (human) (UniProt O95819)
[34] = target: ACVR1B (human) (UniProt P36896)
[35] = target: HIPK4 (human) (UniProt Q8NE63)
[36] = target: AURKB (human) (UniProt Q96GD4)
[37] = target: MARK3 (human) (UniProt P27448)
[38] = target: LTK (human) (UniProt P29376)
[39] = target: TSSK1B (human) (UniProt Q9BXA7)
[40] = target: EPHA7 (human) (UniProt Q15375)
[41] = target: EPHA5 (human) (UniProt P54756)
EPHA5 (human), sequence (P54756 whole entry, looked up): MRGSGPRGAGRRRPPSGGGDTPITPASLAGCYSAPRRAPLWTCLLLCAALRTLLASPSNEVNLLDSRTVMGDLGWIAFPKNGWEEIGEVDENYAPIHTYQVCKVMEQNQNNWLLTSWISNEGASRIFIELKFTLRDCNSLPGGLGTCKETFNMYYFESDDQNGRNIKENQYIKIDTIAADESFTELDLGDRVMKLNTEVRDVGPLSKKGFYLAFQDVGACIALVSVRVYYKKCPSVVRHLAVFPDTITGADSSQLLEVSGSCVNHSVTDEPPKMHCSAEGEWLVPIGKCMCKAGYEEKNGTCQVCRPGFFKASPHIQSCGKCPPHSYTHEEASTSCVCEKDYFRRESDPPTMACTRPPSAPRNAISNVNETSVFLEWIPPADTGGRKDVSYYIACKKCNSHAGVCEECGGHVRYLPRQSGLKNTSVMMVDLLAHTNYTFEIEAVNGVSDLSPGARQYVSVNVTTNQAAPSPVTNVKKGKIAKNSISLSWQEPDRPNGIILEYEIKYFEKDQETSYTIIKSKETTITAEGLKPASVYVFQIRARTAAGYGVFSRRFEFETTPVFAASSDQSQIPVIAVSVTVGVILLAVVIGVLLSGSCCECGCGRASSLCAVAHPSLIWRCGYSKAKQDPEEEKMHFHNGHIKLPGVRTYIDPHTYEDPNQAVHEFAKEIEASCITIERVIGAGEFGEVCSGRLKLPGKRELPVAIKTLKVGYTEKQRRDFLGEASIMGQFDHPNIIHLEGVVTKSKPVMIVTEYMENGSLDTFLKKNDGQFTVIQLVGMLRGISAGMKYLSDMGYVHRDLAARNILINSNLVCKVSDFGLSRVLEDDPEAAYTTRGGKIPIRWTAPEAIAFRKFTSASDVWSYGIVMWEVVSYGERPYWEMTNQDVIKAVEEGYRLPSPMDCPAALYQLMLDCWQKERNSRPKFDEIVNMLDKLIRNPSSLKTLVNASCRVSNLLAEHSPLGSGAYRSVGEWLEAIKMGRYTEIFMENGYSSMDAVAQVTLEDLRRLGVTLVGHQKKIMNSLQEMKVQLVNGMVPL

[42] = target: PASK (human) (UniProt Q96RG2)
PASK (human), sequence (Q96RG2 whole entry, looked up): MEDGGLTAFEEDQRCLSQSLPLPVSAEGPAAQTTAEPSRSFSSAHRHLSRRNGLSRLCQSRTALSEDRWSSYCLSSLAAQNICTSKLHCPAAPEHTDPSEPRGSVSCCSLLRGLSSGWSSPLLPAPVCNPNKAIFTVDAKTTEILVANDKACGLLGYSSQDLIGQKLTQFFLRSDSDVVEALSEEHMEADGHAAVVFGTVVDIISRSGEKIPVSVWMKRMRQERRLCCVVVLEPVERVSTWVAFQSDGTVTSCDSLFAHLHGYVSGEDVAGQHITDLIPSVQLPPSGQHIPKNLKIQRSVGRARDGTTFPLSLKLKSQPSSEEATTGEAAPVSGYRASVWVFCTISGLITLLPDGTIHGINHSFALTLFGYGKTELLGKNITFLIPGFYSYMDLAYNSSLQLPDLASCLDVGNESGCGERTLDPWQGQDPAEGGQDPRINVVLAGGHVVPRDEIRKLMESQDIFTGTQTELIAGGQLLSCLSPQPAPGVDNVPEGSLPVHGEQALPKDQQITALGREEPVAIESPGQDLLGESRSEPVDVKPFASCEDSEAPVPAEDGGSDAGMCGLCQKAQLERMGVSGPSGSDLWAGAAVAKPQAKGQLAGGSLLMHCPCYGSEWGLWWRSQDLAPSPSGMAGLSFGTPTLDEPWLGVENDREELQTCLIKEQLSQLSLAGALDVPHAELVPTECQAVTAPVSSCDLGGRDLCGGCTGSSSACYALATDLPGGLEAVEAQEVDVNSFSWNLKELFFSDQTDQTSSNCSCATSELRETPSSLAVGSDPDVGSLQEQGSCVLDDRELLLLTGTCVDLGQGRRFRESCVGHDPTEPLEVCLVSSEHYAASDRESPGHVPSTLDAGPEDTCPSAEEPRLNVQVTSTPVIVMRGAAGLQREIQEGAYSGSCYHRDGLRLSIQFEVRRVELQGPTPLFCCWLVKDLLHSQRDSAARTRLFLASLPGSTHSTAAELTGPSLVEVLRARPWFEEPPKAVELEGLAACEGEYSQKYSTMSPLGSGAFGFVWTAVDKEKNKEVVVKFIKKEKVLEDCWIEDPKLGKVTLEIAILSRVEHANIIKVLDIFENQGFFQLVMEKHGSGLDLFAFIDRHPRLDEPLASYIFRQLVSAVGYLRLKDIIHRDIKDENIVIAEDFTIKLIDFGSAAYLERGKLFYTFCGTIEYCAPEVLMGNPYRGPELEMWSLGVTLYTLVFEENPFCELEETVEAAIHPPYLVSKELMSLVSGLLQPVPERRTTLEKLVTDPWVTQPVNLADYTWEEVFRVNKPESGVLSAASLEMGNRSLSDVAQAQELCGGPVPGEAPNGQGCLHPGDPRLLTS

EGFR (human), sequence (P00533 whole entry, looked up): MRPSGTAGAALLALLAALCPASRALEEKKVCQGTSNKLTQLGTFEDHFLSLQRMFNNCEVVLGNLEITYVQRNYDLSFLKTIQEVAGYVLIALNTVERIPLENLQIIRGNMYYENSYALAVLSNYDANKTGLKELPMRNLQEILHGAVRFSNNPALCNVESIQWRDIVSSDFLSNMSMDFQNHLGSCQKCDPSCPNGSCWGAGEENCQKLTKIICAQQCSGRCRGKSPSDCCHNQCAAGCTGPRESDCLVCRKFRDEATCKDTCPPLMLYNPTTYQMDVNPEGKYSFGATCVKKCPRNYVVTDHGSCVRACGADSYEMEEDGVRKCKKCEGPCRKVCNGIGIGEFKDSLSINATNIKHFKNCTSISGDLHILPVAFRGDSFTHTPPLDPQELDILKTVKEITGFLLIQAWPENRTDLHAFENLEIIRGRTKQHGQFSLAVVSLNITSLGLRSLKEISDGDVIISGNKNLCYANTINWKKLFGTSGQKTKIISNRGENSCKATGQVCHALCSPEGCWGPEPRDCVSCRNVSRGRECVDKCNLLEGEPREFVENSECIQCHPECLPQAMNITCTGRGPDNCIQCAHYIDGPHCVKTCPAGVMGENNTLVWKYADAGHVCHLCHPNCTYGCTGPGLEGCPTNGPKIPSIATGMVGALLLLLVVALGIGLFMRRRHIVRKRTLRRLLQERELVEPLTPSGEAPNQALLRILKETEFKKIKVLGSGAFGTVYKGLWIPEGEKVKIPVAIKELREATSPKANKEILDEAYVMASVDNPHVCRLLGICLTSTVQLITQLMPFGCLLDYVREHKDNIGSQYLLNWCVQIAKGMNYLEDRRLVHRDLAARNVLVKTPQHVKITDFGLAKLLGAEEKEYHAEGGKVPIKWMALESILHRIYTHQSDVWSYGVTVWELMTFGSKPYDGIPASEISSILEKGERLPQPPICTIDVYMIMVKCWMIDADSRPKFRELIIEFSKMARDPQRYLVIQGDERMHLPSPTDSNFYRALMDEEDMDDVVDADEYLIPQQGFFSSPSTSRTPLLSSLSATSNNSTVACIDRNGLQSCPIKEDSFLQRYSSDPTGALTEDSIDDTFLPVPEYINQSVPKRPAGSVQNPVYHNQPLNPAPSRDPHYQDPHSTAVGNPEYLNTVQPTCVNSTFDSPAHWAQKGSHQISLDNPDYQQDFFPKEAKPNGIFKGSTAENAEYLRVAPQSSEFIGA
PRKCZ (human), sequence (Q05513 whole entry, looked up): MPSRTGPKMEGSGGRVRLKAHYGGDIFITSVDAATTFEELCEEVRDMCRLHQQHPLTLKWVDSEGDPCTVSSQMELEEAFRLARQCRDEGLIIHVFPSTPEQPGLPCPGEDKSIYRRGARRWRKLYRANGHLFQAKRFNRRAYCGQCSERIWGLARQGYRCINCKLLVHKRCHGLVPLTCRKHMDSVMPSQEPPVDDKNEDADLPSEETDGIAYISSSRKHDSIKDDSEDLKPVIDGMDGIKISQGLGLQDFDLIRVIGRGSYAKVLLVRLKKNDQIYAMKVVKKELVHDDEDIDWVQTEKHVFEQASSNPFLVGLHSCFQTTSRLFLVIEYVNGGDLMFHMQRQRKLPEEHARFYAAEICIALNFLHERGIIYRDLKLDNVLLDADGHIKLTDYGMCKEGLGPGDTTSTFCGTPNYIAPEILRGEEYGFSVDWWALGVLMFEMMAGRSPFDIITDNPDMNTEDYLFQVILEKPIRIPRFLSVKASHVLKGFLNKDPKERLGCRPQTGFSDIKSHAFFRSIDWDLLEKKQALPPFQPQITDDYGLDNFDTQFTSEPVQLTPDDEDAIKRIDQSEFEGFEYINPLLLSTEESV

CC[n+]1c(/C=C/N(C)c2ccccc2)n(-c2ccccc2)c2ccc(-c3nc4ccccc4s3)cc21 was tested, and the residual activity [1] was 97.6%, the residual activity [2] was 96.7% and the residual activity [3] was 99.8%. For the same compound, the residual activity [4] was 92.7%, the residual activity [5] was 103% and the residual activity [6] was 97.2%. The residual activity [7] was 109%, the residual activity [8] was 105% and the residual activity [9] was 102%. The residual activity [10] was 102%, the residual activity [11] was 90.1% and the residual activity [12] was 92.7%. For the same compound, the residual activity [13] was 102%, the residual activity [14] was 97.7% and the residual activity [15] was 79.2%. For the same compound, the residual activity [16] was 99.1%, the residual activity [17] was 88.5% and the residual activity [18] was 114%. It also gave a residual activity [19] of 99.1%, a residual activity [20] of 161% and a residual activity [21] of 92%. The residual activity [22] was 99.4%, the residual activity [23] was 93.2% and the residual activity [24] was 108%. The residual activity [25] was 96.5%, the residual activity [26] was 98.9% and the residual activity [27] was 90.3%. The residual activity [28] was 103%, the residual activity [29] was 99.7% and the residual activity [30] was 98.3%. For the same compound, the residual activity [31] was 105%, the residual activity [32] was 94.6% and the residual activity [33] was 110%. For the same compound, the residual activity [34] was 110%, the residual activity [35] was 102% and the residual activity [36] was 93.9%. It also gave a residual activity [37] of 98.8%, a residual activity [38] of 90.7% and a residual activity [39] of 102%. It also gave a residual activity [40] of 97.9%, a residual activity [41] of 100% and a residual activity [42] of 102%.
